Data as given in patent publication US9205069B2, “Inhibitors of anaphase promoting complex activity” (President and Fellows of Harvard College, priority 2009, dated 2015).

Legend:
human APC = biological target: T1, human APC (Homo sapiens, UniProt P30260+Q13042+Q9UJX2+Q9UJX3); assay: 3H-TAME binding to APC in asynchronous HeLa cell lysate
T1 construct: endogenous in cells; host or cells: asynchronous HeLa cells (lysate)
Excerpt: The same experiment was done as described in 3C using asynchronous Hela cell lysate.

APC-Cdh1 = assay: in vitro ubiquitination assay with interphase APC activated by recombinant Cdh1; format: biochemical, Xenopus; settings: 200 μM, added into ubiquitination reaction
Excerpt: APC was then immunoprecipitated and tested in an in vitro ubiquitination assay.

[1] = system: cyclin B1 degradation and Cdc27 phosphorylation; assay: mitotic arrest in Xenopus extract after MPF addition (Western blot); format: biochemical; settings: 200 μM, interphase extract plus MPF
APC-Cdc20 = assay: in vitro ubiquitination assay with APC immunopurified from mitotic extract; format: biochemical, Xenopus; settings: 200 μM, added into ubiquitination reaction
Excerpt: APC was immunoprecipitated from mitotic extract and tested in an in vitro ubiquitination assay.

Xenopus APC = assay: 3H-TAME binding to APC in interphase extract (Cdc27 immunoprecipitation, scintillation counting); settings: 200 nM 3H TAME
Procedure: Interphase extract was subjected to three rounds of immunoprecipitation with Cdc27 antibody. […] The specific counts associated with the beads were determined by scintillation counting.
(§1) The specific counts associated with the beads were determined by scintillation counting.
as §1
In parallel, the amount of immunoprecipitated Cdc27 was determined by immunoblot.

[2] = system: interaction between APC and IR peptide; assay: APC recruitment from interphase extract by IR peptide resin; format: binding, Xenopus; settings: 200 μM
Procedure: Top panel: Iodoacetyl resin was coupled with cysteine, a 21aa C-terminal peptide of Cdh1 or a 19aa peptide missing the C-terminal IR tail. The resin was incubated with interphase extract and the amount of Cdc27 bound on resin was analyzed.

[3] = system: APC-dependent proteolysis; assay: cyclin B-luciferase degradation in mitotic Xenopus egg extract (luciferase assay); settings: derivatives tested at 200 μM
Procedure: Samples were collected at 60 minutes and the remaining reporter level was measured by luminescence. Interphase extract was used as a negative control.

[4] = system: proteasomal degradation of ubiquitinated cyclin B1; assay: degradation of pre-ubiquitinated 35S-cyclin B1 in interphase extract; format: biochemical, Xenopus; settings: TAME 200 μM
Procedure: At indicated time points, all protein was precipitated and the level of radioactivity in supernatant was measured by scintillation counting. MG262 was used as a positive control.
A purified MPF complex containing 35S-labeled cyclin B1 was ubiquitinated by APC in a reconstituted ubiquitination system, and then added to interphase Xenopus extract in the presence or absence of inhibitors.

SMILES | competition with specific 3H-TAME binding to human APC (human APC) | APC-Cdh1 activity, compound added directly to reconstituted assay (APC-Cdh1) | cyclin B1 and Cdc27 phosphorylation after MPF addition [1] | APC ligase activity, compound added directly to reconstituted ubiquitination assay (APC-Cdc20) | competition with specific binding of 3H-TAME to Xenopus APC (Xenopus APC) | APC recruitment by IR peptide resin [2] | activity of TAME derivatives in luciferase assay [3] | degradation of pre-ubiquitinated cyclin B1 [4]
COC(=O)[C@H](CCCNC(=N)N)NC(C)=O [AAME, acetyl-L-arginine methylester] | did not | did not inhibit APC | degraded by 30 min | did not inhibit APC | did not | no effect | lowest activity | –
CC(C)C[C@H](NC(=O)[C@H](CC(C)C)NC(=O)[C@H](CC(C)C)NC(=O)OCc1ccccc1)B(O)O [MG262] | – | – | – | – | – | – | – | strongly inhibited
